Reference: patent US8980948B2, “Topical application of travoprost for combating hair loss” (Galderma Research & Development, priority 2007, dated 2015)

What was measured:
human hair follicles = assay: Human hair follicles kept alive: elongation of the hair shaft in organ culture; assay type: cell-based; conditions: 1 μM in DMSO; for Elongation at D 7: cumulative from D0, mean
Protocol: Human hair follicles are dissected while keeping the bulb and the connective and epithelial sheaths intact to be cultured in an appropriate medium which makes it possible to provide for the growth of the follicle ex vivo while keeping its structure intact in the growth or anagen phase (Stenn, Ann. N.Y. Acad. Sci., 1991, Dec. 26, 642, xi-xiii). The growth of the hair follicles in vitro is then evaluated using the measurement of elongation of the […].
Human hair follicles of “terminal” type are isolated from a skin sample resulting from facial surgery (lifting). For this, the skin is cut into pieces of approximately 5×5 mm. The hypodermis is separated from the dermis using a scalpel blade. The hair follicles are isolated from the hypodermal part under a binocular magnifier using fine forceps. Only the hair follicles in the growth phase with a bulb and intact connective and epithelial sheaths are retained for study.
The hair follicles thus isolated are incubated at 37° C. in a humid atmosphere (5% CO2 and 95% air) and are cultured individually in suspension for 7 days in William's E medium supplemented with 2 mM of L-glutamine, 10 μg/ml of insulin, 10 ng/ml of hydrocortisone and 1% of antibiotics/antimitotics. The culture medium is replaced every 2 or 3 days.
The travoprost in its acid form is taken up in DMSO at a concentration of 10^−2M and stored at −20° C. until used.
The surviving hair follicles are treated with the DMSO carrier at a final concentration of 0.1% or with the travoprost acid at a concentration of 1 μM in DMSO (final DMSO concentration also at 0.1%). For each condition, 22 hair follicles are treated individually subsequent to culturing at D0. In the case of a repeated treatment, the travoprost acid at 1 μM in DMSO is replaced at the time of the change in medium, this being done for 7 days. In the case of a single treatment, the travoprost acid at 1 μM DMSO is added to the culture medium just once in the culturing.
The growth of the hair follicles is determined by the measurement of the elongation of the hair shaft from day D0 to day D7. The elongation of the hair shaft is analyzed using Tina image analysis software. The measurements are carried out on hair follicles isolated at days D0, D3, D5 and D7.
The mean post-D0 length (by definition: the mean of the lengths measured on the days following D0) is considered:
The mean post-D0 length is a function: • of the initial length at D0 • of the treatment group • of other factors related to technological or biological variability.
In this study example, 15 hair follicles (all groups mixed up) out of 66 cultured were discarded.
It is assumed that the mean post-D0 length is the sum of four components:
Some measurements, referred to as “aberrant” measurements, can have a highly disruptive effect on the estimation of the effects of the model. A robust ANOVA method is applied with regard to these measurements: “LTS” (Least Trimmed Squares). The principle of the LTS method is as follows: • 1. A definition is made at the start of a fixed proportion p0 of observations which it is desired to ignore in the estimation of the effects (p0=10%) among all the observations present independently of the treatment (observations of the entire study). The corresponding number of observations is denoted n0. • 2. n0 points are selected at random and excluded from the estimation process. • 3. The parameters (effects) of the model are estimated. • 4. Among the observations, excluded and non-excluded, the n0 observations which are the least well predicted by the model are identified. • 5. The n0 least well predicted observations found in stage 4, are, in their turn, excluded from the estimation process. • 6. Stage 3 (estimation) is reverted to until the observations excluded in stage 5 remain unchanged (“convergence”).
The LTS process is repeated a large number of times (200) starting from different random selections. […]

C57BL/6 mouse = assay: Model of regrowth of the body hair in the C57BL/6 mouse; assay type: in vivo; conditions: for Regrowth of the body hair versus ethanol ΔAUC (D 1-D 22): topical 50 μl
Description: The C57BU6 mice are each a particularly useful model for the study of hair growth:
In C57BU6 mice, the fur is black. In the trunk of the animals, the melanocytes are present solely in the hair follicles and the production of pigment is strictly correlated with the anagen phase of the hair cycle (Slominski A. and Paus R., J. Invest. Dermatol., 10, 90S-97S, 1993).
In young mice, the hair cycles are not in phase throughout the body but are synchronized in a region according to a rostro-caudal wave (Hale P. A. and Ebling F. J., J. Exp. Zool., 191, 49-62). At 42 days, the hair follicles of the dorsal region enter the telogen phase (Chase H. B. Physiol. Rev., 34, 113-126, 195).
Thus, after clipping and shaving the backs of C57BU6 mice aged 42 days, the regrowth can be easily visualized before the hair shafts appear at the surface by the grey appearance which the skin assumes. The delay in appearance of the grey color of the skin and the delay in appearance of the hair shafts after clipping and shaving represent criteria which give an account of the rate of entry of the hair follicle into the anagen phase and the rate of growth of the hair shaft. These two criteria will thus be used to evaluate the activity on the hair growth of the compounds tested.
The male C57BU6 mice are aged 42 days at the beginning of the study. The groups are formed of 10 animals.
On day D0, the backs of the animals are clipped with Minicut clippers equipped with a shoe (retention of 4 mm of hair shaft) and shaved with a Braun razor.
The study is carried out over 21 days.
The hair growth is evaluated according to the criteria defined in:
Minoxidil in solution in ethanol at 2.5% is used as positive control of the regrowth of the body hair.
Travoprost in its isopropyl ester form is used in solution in ethanol at 0.01%.
The travoprost, the minoxidil and the carrier are administered by the topical route using a pipette at the rate of 50 μl per application.
The minoxidil and the carrier are administered in repeated daily fashion from day 1 to day 21 of the study. Two different treatments are carried out with the travoprost: a first group receiving a single administration on day 1 of the study and a second group receiving five repeated daily and consecutive administrations from day 1 to day 5 of the study.
The following calculations are carried out: • Mean±SEM of the scores per day for each group treated. • Areas under the curve (AUC) of the regrowth scores per animal from D1 to D22. • Mean±SEM of the AUC values per treatment group. • Percentage of increase in the AUC values for each treated group versus the carrier group.
The AUC is obtained by summing the areas of the rectangles from the first and the final day of the study. The different treatment groups are compared with the carrier group with regard to this parameter by means of a Student's t-test.

[1] = single treatment at the time of culturing

O=C(O)CCC/C=C\C[C@@H]1[C@@H](/C=C/[C@@H](O)COc2cccc(C(F)(F)F)c2)[C@H](O)C[C@@H]1O [travoprost acid]
elongation in the hair shaft compared with carrier DMSO (human hair follicles; single treatment): greater than that obtained with the carrier DMSO
time at which the effect on elongation appears (human hair follicles; single treatment): from the third day of treatment

Nc1cc(N2CCCCC2)nc(N)[n+]1[O-] [Minoxidil, 2,4-diamino-6-piperidinopyrimidine 3-oxide]
Regrowth of the body hair versus ethanol ΔAUC (D 1-D 22) (C57BL/6 mouse; 2.5% in ethanol, repeated daily administrations (21 days)): +34%
Regrowth of the body hair versus ethanol ΔAUC (D 1-D 22) (C57BL/6 mouse; 2.5% in ethanol, repeated daily administrations (21 days), listed as minoxidil): 30%
regrowth of the body hair in comparison with the carrier (C57BL/6 mouse; 2.5%, repeated daily administration for 21 days): accelerates the regrowth of the body hair

CC(C)OC(=O)CCC/C=C\C[C@@H]1[C@@H](/C=C/[C@@H](O)COc2cccc(C(F)(F)F)c2)[C@H](O)C[C@@H]1O [Travoprost, propane-2-yl (Z)-7-[(1R,2R,3R,5S)-3,5-dihydroxy-2-[(1E,3R)-3-hydroxy-4-[3-(trifluoromethyl)phenoxy]but-1-enyl]cyclopentyl]hept-5-enoate]
AUC (D 0-D 7) of hair shaft elongation (human hair follicles; repeated treatment during 7 days): 5.82
Elongation at D 7 (human hair follicles; repeated treatment during 7 days of culturing): 1.23 mm
AUC (D 0-D 7) of hair shaft elongation (human hair follicles; [1]): 5.83
Elongation at D 7 (human hair follicles; [1]): 1.27 mm
Regrowth of the body hair versus ethanol ΔAUC (D 1-D 22) (C57BL/6 mouse; 0.01% in ethanol, repeated daily administrations (5 days)): +7%
Regrowth of the body hair versus ethanol ΔAUC (D 1-D 22) (C57BL/6 mouse; 0.01% in ethanol, single administration on day 1): +31%
Regrowth of the body hair versus ethanol ΔAUC (D 1-D 22) (C57BL/6 mouse; 0.01% in ethanol, single administration on day 1, listed as travoprost): 31%
regrowth of the body hair in comparison with the carrier (C57BL/6 mouse; 0.01%, repeated daily and consecutive administrations for 5 days): do not accelerate the regrowth of the body hairs
regrowth of the body hair in comparison with the carrier (C57BL/6 mouse; 0.01%, single administration): significantly accelerates the regrowth of the body hair
